Experimental findings from US20230120597A1, “CO-AGONISTS AT GLP-1 AND GIP RECEPTORS SUITABLE FOR ORAL DELIVERY” (Novo Nordisk A/S, priority 2020, published 2023) are described below.

Marks after values point to notes of the source that are not given here. Starred links: 1 amine or outer side, 2 acyl side, 3 side chain; linkers in the order of their positions; H or OH if unused. Non-standard residues stand in square brackets, D forms with d. Residues, ends and D or L forms follow the SMILES beside them. Groups on a side chain read outwards from the residue. *: point of attachment. C20 diacid = O=C(O)CCCCCCCCCCCCCCCCCCC(=O)*; C18 diacid = O=C(O)CCCCCCCCCCCCCCCCC(=O)*; γGlu = O=C(O)[C@H](CCC(=O)[*:2])N[*:1]; εLys = N[C@@H](CCCCN[*:1])C(=O)[*:2]; Aib = CC(C)(N)C(=O)O

The nature of the series: Pharmacokinetic study in dogs, oral dosing of tablet compositions with SNAC. It counts as in vivo, Beagle dogs. The method, then: The purpose of this example is to determine the half-life and plasma exposure in vivo of the compounds of the present invention after p.o. administration to beagle dogs, i.e. the terminal half-life and concentration of test substance that reaches circulation with time. This is done in a pharmacokinetic (PK) study, where these parameters of the compound in question are determined. By terminal half-life is generally meant the period of time it takes to halve a certain plasma concentration, measured after the initial distribution phase.
The amount of SNAC in the tablet composition was 100-300 mg, the amount of magnesium stearate in the tablet composition was 7.7 mg, and the target amount of each test substance in the tablet composition was 3-4 mg.
Male beagle dogs, 1-7 years of age and weighing 9-17 kg during the study period, were included in the study. The dogs were dosed in a fasting state. The dogs were group housed in pens (12 hours light: 12 hours dark), and fed individually and restrictedly once daily with Royal Canin Medium Adult dog food (Royal Canin Products, China Branch, or Brogaarden A/S, Denmark). The dogs were used for repeated PK studies with a suitable wash-out period between successive dosing. An appropriate acclimatization period was given prior to initiation of the first PK study. All handling, dosing, and blood sampling of the animals were performed by trained and skilled staff. Before the studies, the dogs were fasted overnight and from 0 to 4 hours after dosing. The dogs were restricted to water 1 hour before dosing until 4 hours after dosing, but otherwise had ad libitum access to water during the whole period.
The compositions were administered by a single oral dosing to the dogs in groups of 6-8 dogs. […] The mouth was then closed, and 10 mL of tap water was given by syringe or gavage to facilitate swallowing of the tablet.
One blood sample was drawn before dosing, and additional samples were drawn at predefined time points after dosing for up to 240 hours, such as up to 10 hours, to adequately cover the full plasma concentration-time absorption profile of the test substance. For each blood sample time point, approximately 0.8 mL of whole blood was collected in a 1.5 mL EDTA-coated tube, which was gently turned to mix the sample with EDTA. Blood samples were collected in EDTA buffer (8 mM) and then centrifuged at 4° C. 2000 g for 10 minutes. Plasma was pipetted into Micronic tubes on dry ice, and kept at −20° C. or lower until analysis. Blood samples were taken as appropriate, for example from a venflon in the cephalic vein in the front leg for the first 2 hours and then with syringe from the jugular vein for the rest of the time points. The first few drops were allowed to drain from the venflon to avoid heparin saline from the venflon in the sample.
All blood samples were collected into test tubes containing EDTA for stabilisation and kept on ice until centrifugation. Plasma was separated from whole blood by centrifugation and the plasma was stored at −20° C. or lower until analysis.
The plasma was analysed for test substance using LC-MS (Liquid Chromatography-Mass Spectrometry) as known to the person skilled in the art. […] RP-HPLC separation was achieved using a linear gradient of 1:1 acetonitrile/methanol in 1% aqueous formic acid using either: a Phenomenex Onyx Monolithic C18 column (50×2.0 mm) and a flow rate of 0.8 mL/min at 30° C.; or an Agilent Poroshell 120 SB-C18 column (50×2.1 mm, 2.7 μm) at a flow rate of 0.4 mL/min at 60° C. The mass spectrometer was operated in either positive ionization SIM mode or positive ionization PRM mode.
For each individual animal, a plasma concentration-time profile was analysed by a non-compartmental model in Pharsight Phoenix WinNonLin ver.

`CC[C@H](C)[C@H](NC(=O)[C@H](Cc1ccccc1)NC(=O)[C@H](CCC(=O)O)NC(=O)[C@H](CCCNC(=N)N)NC(=O)[C@H](C)NC(=O)[C@H](C)NC(=O)[C@H](CCC(N)=O)NC(=O)[C@H](CCC(=O)O)NC(=O)[C@H](CCC(=O)O)NC(=O)[C@H](CC(C)C)NC(=O)[C@H](CC(C)C)NC(=O)[C@H](CCCCNC(=O)[C@@H](N)CCCCNC(=O)[C@@H](N)CCCCNC(=O)CC[C@H](NC(=O)CCCCCCCCCCCCCCCCC(=O)O)C(=O)O)NC(=O)[C@H](CO)NC(=O)[C@H](Cc1ccc(O)cc1)NC(=O)[C@H](CC(=O)O)NC(=O)[C@H](CO)NC(=O)[C@@H](NC(=O)[C@H](Cc1ccccc1)NC(=O)[C@@H](NC(=O)CNC(=O)[C@H](CCC(=O)O)NC(=O)C(C)(C)NC(=O)[C@@H](N)Cc1ccc(O)cc1)[C@@H](C)O)[C@@H](C)O)C(=O)N[C@@H](CCC(=O)O)C(=O)N[C@@H](Cc1c[nH]c2ccccc12)C(=O)N[C@@H](CC(C)C)C(=O)N[C@@H](CC(C)C)C(=O)N[C@@H](C)C(=O)NCC(=O)NCC(=O)N1CCC[C@H]1C(=O)N[C@@H](CO)C(=O)N[C@@H](CO)C(=O)NCC(=O)N[C@@H](C)C(=O)N1CCC[C@H]1C(=O)N1CCC[C@H]1C(=O)N1CCC[C@H]1C(=O)N[C@@H](CO)C(=O)O` [Compound No. 40]: the AUC/Dose (dog, in vivo, po) came out at 27.0 kg·h/L.
`CC[C@H](C)[C@H](NC(=O)[C@H](Cc1ccccc1)NC(=O)[C@H](CCC(=O)O)NC(=O)[C@H](CCCNC(=N)N)NC(=O)[C@H](C)NC(=O)[C@H](C)NC(=O)[C@H](CCC(N)=O)NC(=O)[C@H](CCCCNC(=O)[C@@H](N)CCCCNC(=O)[C@@H](N)CCCCNC(=O)CC[C@H](NC(=O)CCCCCCCCCCCCCCCCC(=O)O)C(=O)O)NC(=O)[C@H](CCC(=O)O)NC(=O)[C@H](CC(C)C)NC(=O)[C@H](CC(C)C)NC(=O)[C@@H](NC(=O)[C@H](CO)NC(=O)[C@H](Cc1ccc(O)cc1)NC(=O)[C@H](CC(=O)O)NC(=O)[C@H](CO)NC(=O)[C@@H](NC(=O)[C@H](Cc1ccccc1)NC(=O)[C@@H](NC(=O)CNC(=O)[C@H](CCC(=O)O)NC(=O)C(C)(C)NC(=O)[C@@H](N)Cc1ccc(O)cc1)[C@@H](C)O)[C@@H](C)O)[C@@H](C)CC)C(=O)N[C@@H](CCC(=O)O)C(=O)N[C@@H](Cc1c[nH]c2ccccc12)C(=O)N[C@@H](CC(C)C)C(=O)N[C@@H](CC(C)C)C(=O)N[C@@H](CCCNC(=N)N)C(=O)NCC(=O)NCC(=O)N1CCC[C@H]1C(=O)N[C@@H](CCC(=O)O)C(=O)N[C@@H](CO)C(=O)NCC(=O)N[C@@H](C)C(=O)N1CCC[C@H]1C(=O)N1CCC[C@H]1C(=O)N1CCC[C@H]1C(=O)N[C@@H](CO)C(=O)O` [Compound No. 28] (H-Y[Aib]EGTFTSDYSILLEK([εLys-εLys-γGlu-C18 diacid])QAAREFIEWLLRGGPESGAPPPS-OH): the AUC/Dose (oral tablet, SNAC 300 mg, test substance 3 mg, Beagle dogs, arithmetic mean) is recorded as 18.6** kg*h/L.
As to `CC[C@H](C)[C@H](NC(=O)[C@H](Cc1ccccc1)NC(=O)[C@H](CCC(=O)O)NC(=O)[C@H](CCCNC(=N)N)NC(=O)[C@H](C)NC(=O)[C@H](C)NC(=O)[C@H](CCC(N)=O)NC(=O)[C@H](CCC(=O)O)NC(=O)[C@H](CCC(=O)O)NC(=O)[C@H](CC(C)C)NC(=O)[C@H](CC(C)C)NC(=O)[C@@H](NC(=O)[C@H](CO)NC(=O)[C@H](Cc1ccc(O)cc1)NC(=O)[C@H](CC(=O)O)NC(=O)[C@H](CO)NC(=O)[C@@H](NC(=O)[C@H](Cc1ccccc1)NC(=O)[C@@H](NC(=O)CNC(=O)[C@H](CCC(=O)O)NC(=O)C(C)(C)NC(=O)[C@@H](N)Cc1ccc(O)cc1)[C@@H](C)O)[C@@H](C)O)[C@@H](C)CC)C(=O)N[C@@H](CCC(=O)O)C(=O)N[C@@H](Cc1c[nH]c2ccccc12)C(=O)N[C@@H](CC(C)C)C(=O)N[C@@H](CC(C)C)C(=O)N[C@@H](C)C(=O)NCC(=O)NCC(=O)N1CCC[C@H]1C(=O)N[C@@H](CO)C(=O)N[C@@H](CCCCNC(=O)[C@@H](N)CCCCNC(=O)[C@@H](N)CCCCNC(=O)CC[C@H](NC(=O)CCCCCCCCCCCCCCCCC(=O)O)C(=O)O)C(=O)NCC(=O)N[C@@H](C)C(=O)N1CCC[C@H]1C(=O)N1CCC[C@H]1C(=O)N1CCC[C@H]1C(=O)N[C@@H](CO)C(=O)O` [Compound No. 43] (H-Y[Aib]EGTFTSDYSILLEEQAAREFIEWLLAGGPSK([εLys-εLys-γGlu-C18 diacid])GAPPPS-OH), for the setting “dog, in vivo, po”, the AUC/Dose stood at 21.4 kg·h/L and the Cmax/Dose came out at 0.22 kg/L.
For the setting “dog, in vivo, po”, `CC[C@H](C)[C@H](NC(=O)[C@H](Cc1ccccc1)NC(=O)[C@H](CCC(=O)O)NC(=O)[C@H](CCCNC(=N)N)NC(=O)[C@H](C)NC(=O)[C@H](C)NC(=O)[C@H](CCC(N)=O)NC(=O)[C@H](CCCCNC(=O)[C@@H](N)CCCCNC(=O)[C@@H](N)CCCCNC(=O)CC[C@H](NC(=O)CCCCCCCCCCCCCCCCCCC(=O)O)C(=O)O)NC(=O)[C@H](CCC(=O)O)NC(=O)[C@H](CC(C)C)NC(=O)[C@H](Cc1ccc(O)cc1)NC(=O)[C@@H](NC(=O)[C@H](CO)NC(=O)[C@H](Cc1ccc(O)cc1)NC(=O)[C@H](CC(=O)O)NC(=O)[C@H](CO)NC(=O)[C@@H](NC(=O)[C@H](Cc1ccccc1)NC(=O)[C@@H](NC(=O)CNC(=O)[C@H](CCC(=O)O)NC(=O)C(C)(C)NC(=O)[C@@H](N)Cc1ccc(O)cc1)[C@@H](C)O)[C@@H](C)O)[C@@H](C)CC)C(=O)N[C@@H](CC(N)=O)C(=O)N[C@@H](Cc1c[nH]c2ccccc12)C(=O)N[C@@H](CC(C)C)C(=O)N[C@@H](CC(C)C)C(=O)N[C@@H](C)C(=O)NCC(=O)NCC(=O)N1CCC[C@H]1C(=O)N[C@@H](CO)C(=O)N[C@@H](CO)C(=O)NCC(=O)N[C@@H](C)C(=O)N1CCC[C@H]1C(=O)N1CCC[C@H]1C(=O)N1CCC[C@H]1C(=O)N[C@@H](CO)C(=O)O` [Compound No. 16] (H-Y[Aib]EGTFTSDYSIYLEK([εLys-εLys-γGlu-C20 diacid])QAAREFINWLLAGGPSSGAPPPS-OH) had an AUC/Dose of 8.6 kg·h/L.
Take `CC[C@H](C)[C@H](NC(=O)[C@H](Cc1ccccc1)NC(=O)[C@H](CCC(=O)O)NC(=O)[C@H](Cc1c[nH]cn1)NC(=O)[C@H](C)NC(=O)[C@H](C)NC(=O)[C@H](CCC(N)=O)NC(=O)[C@H](CCCCNC(=O)[C@@H](N)CCCCNC(=O)[C@@H](N)CCCCNC(=O)CC[C@H](NC(=O)CCCCCCCCCCCCCCCCC(=O)O)C(=O)O)NC(=O)[C@H](CCC(=O)O)NC(=O)[C@H](CC(C)C)NC(=O)[C@H](CC(C)C)NC(=O)[C@@H](NC(=O)[C@H](CO)NC(=O)[C@H](Cc1ccc(O)cc1)NC(=O)[C@H](CC(=O)O)NC(=O)[C@H](CO)NC(=O)[C@@H](NC(=O)[C@H](Cc1ccccc1)NC(=O)[C@@H](NC(=O)CNC(=O)[C@H](CCC(=O)O)NC(=O)C(C)(C)NC(=O)[C@@H](N)Cc1ccc(O)cc1)[C@@H](C)O)[C@@H](C)O)[C@@H](C)CC)C(=O)N[C@@H](CC(N)=O)C(=O)N[C@@H](Cc1c[nH]c2ccccc12)C(=O)N[C@@H](CC(C)C)C(=O)N[C@@H](CC(C)C)C(=O)N[C@@H](C)C(=O)NCC(=O)NCC(=O)N1CCC[C@H]1C(=O)N[C@@H](CO)C(=O)N[C@@H](CO)C(=O)NCC(=O)N[C@@H](C)C(=O)N1CCC[C@H]1C(=O)N1CCC[C@H]1C(=O)N1CCC[C@H]1C(=O)N[C@@H](CO)C(=O)O` [Compound No. 26] (H-Y[Aib]EGTFTSDYSILLEK([εLys-εLys-γGlu-C18 diacid])QAAHEFINWLLAGGPSSGAPPPS-OH): the AUC/Dose (dog, in vivo, po) is on record as 27.4* kg*h/L.
